Experiments:
[1] = relative stability of polymorphs Form A and Form F; assay type: physicochemical
[2] = genotoxicity of side-products of the process with compound (IIIa); conditions: side-products formed when compound (IIIa) is used
Source text: According to the process herein described when compound (IIIa) is being used compounds of formulae (X) and (XI) may be produced as side-products, which are genotoxic: […]

## CCc1nc(C)cn2nc(-c3cc(=O)n4cc(C5CCN(C)CC5)cc(C)c4n3)cc12 [Form F, 2-(4-Ethyl-6-methyl-pyrazolo[1,5-a]pyrazin-2-yl)-9-methyl-7-(1-methyl-piperidin-4-yl)-pyrido[1,2-a]pyrimidin-4-one]
[1]; Form F
  drug product robustness: improve drug product robustness
[1]; at 80° C. or below, Form F versus Form A
  relative thermodynamic stability of polymorphs (enantiotropically related): more stable

## CCc1nc(C)cn2nc(-c3nc4c(C)cc(C5CCN(C)CC5)cn4c(=O)c3C(=O)CCl)cc12 [(XI)]
[2]
  genotoxicity: genotoxic

## CCc1nc(C)cn2nc(-c3nc4c(C)cc(C5CCN(C)CC5)cn4c(=O)c3Cl)cc12 [(X)]
[2]
  genotoxicity: genotoxic
